How the values were obtained:
[1] = test system: Mycobacterium tuberculosis; experiment: Antimycobacterial activity against Mycobacterium tuberculosis H37Ra ATCC 25177 assessed as inhibition of bacterial growth at 128 uM measured after 7 days by luminescence based analysis relative to control; format: functional; conditions: H37Ra ATCC 25177, 168 h, time 7 day
[2] = test system: Mycobacterium tuberculosis; experiment: Inhibition of Mycobacterium tuberculosis Zmp1 at 8 to 40 uM by MALDI-TOF-MS analysis; conditions: dose 8-40 µM
RAW264.7 = experiment: Cytotoxicity against mouse RAW264.7 cells assessed as inhibition of cell growth measured after 72 hrs by resazurin staining based […] analysis; format: functional; conditions: RAW264.7, 72 h
MRC5 = experiment: Cytotoxicity against human MRC5 cells assessed as inhibition of cell growth measured after 72 hrs by resazurin staining based […] analysis; format: functional; conditions: MRC5, 72 h
[3] = test system: Mycobacterium tuberculosis; experiment: Antimycobacterial activity against Mycobacterium tuberculosis H37Ra infected in mouse RAW264.7 cells assessed as reduction in intracellular bacterial survival at 128 uM incubated for 3 days by luminescence based analysis relative to control; format: functional; conditions: time 3 day

| SMILES | inhibition at 128 µM [1] | inhibition [2] | IC50 (RAW264.7; read-out: IC50) | IC50 (MRC5) | IC50 (RAW264.7) | Activity [3] |
| --- | --- | --- | --- | --- | --- | --- |
| NNC(=O)c1ccncc1 [ISONIAZID] | 100% |  |  |  |  |  |
| CC(C)[C@H](NC(=O)CNC(=O)c1ccn(CC(=O)NOCc2ccccc2)c1)C(=O)O | 5.9% | 70% | > 128 µM | > 128 µM |  |  |
| CC/C(=C(\c1ccccc1)c1ccc(OCCN(C)C)cc1)c1ccccc1 [TAMOXIFEN] |  |  |  | 17.2 µM | 18.5 µM |  |
| C=CCONC(=O)CN1C(=O)S/C(=C\c2cccc(C(=O)N[C@@H](CC(C)C)C(=O)OC)c2)C1=O | 3.2% | 47% | > 128 µM | > 128 µM |  | 46.3% |
| C=CCONC(=O)Cn1ccc(C(=O)NCC(=O)N[C@@H](CC(C)C)C(=O)O)c1 | 6.9% | 13% | > 128 µM | > 128 µM |  |  |
| COC(=O)[C@@H](NC(=O)c1cccc(/C=C2\SC(=O)N(CC(=O)NOCc3ccccc3)C2=O)c1)C(C)C | 6.3% |  | > 128 µM | > 128 µM |  | 35.1% |
| CO[C@H]1/C=C/O[C@@]2(C)Oc3c(C)c(O)c4c(O)c(c(/C=N/N5CCN(C)CC5)c(O)c4c3C2=O)NC(=O)/C(C)=C\C=C\[C@H](C)[C@H](O)[C@@H](C)[C@@H](O)[C@@H](C)[C@H](OC(C)=O)[C@@H]1C [RIFAMPIN] | 100% |  |  |  |  |  |
| CC(C)[C@H](NC(=O)CNC(=O)c1cn(CC(=O)NOCc2ccccc2)c2ccccc12)C(=O)O | 30.3% | 69% | > 128 µM | > 128 µM |  | 37.2% |
| C=CCONC(=O)CN1C(=O)S/C(=C\c2cccc(C(=O)N[C@H](C(=O)OC)C(C)C)c2)C1=O | 3.4% |  | > 128 µM | > 128 µM |  | 14.1% |
| C=CCONC(=O)Cn1cc(C(=O)NCC(=O)N[C@H](C(=O)O)C(C)C)c2ccccc21 | 10.3% | 56% | > 128 µM | > 128 µM |  |  |
| CC(C)[C@H](NC(=O)[C@H](C)NC(=O)c1cn(CC(=O)NOCc2ccccc2)c2ccccc12)C(=O)O | 23.6% | 59% | > 128 µM | > 128 µM |  |  |
| C=CCONC(=O)CN1C(=O)S/C(=C\c2ccc(C(=O)N[C@@H](CC(C)C)C(=O)OC)cc2)C1=O | 4.4% | 6% | > 128 µM | > 128 µM |  | 67.3% |
| C=CCONC(=O)Cn1ccc(C(=O)N[C@@H](C)C(=O)N[C@@H](CC(C)C)C(=O)O)c1 | 13.8% | 88% | > 128 µM | > 128 µM |  |  |
| C=CCONC(=O)Cn1cc(C(=O)NCC(=O)N[C@@H](CC(C)C)C(=O)O)c2ccccc21 | 14.6% | 47% | > 128 µM | > 128 µM |  |  |
| CC(C)C[C@H](NC(=O)CNC(=O)c1ccn(CC(=O)NOCc2ccccc2)c1)C(=O)O | 9.2% | 26% | > 128 µM | > 128 µM |  |  |
| CC(C)C[C@H](NC(=O)CNC(=O)c1cn(CC(=O)NOCc2ccccc2)c2ccccc12)C(=O)O | 11.1% | 57% | > 128 µM | > 128 µM |  |  |
| C=CCONC(=O)Cn1ccc(C(=O)NCC(=O)N[C@H](C(=O)O)C(C)C)c1 |  | 14% |  |  |  |  |
| CC(C)C[C@H](NC(=O)[C@H](C)NC(=O)c1ccn(CC(=O)NOCc2ccccc2)c1)C(=O)O | 3.2% | 62% | > 128 µM | > 128 µM |  |  |
| C=CCONC(=O)Cn1ccc(C(=O)N[C@@H](C)C(=O)N[C@H](C(=O)O)C(C)C)c1 | 12.8% | 27% | > 128 µM | > 128 µM |  |  |
| CC(C)[C@H](NC(=O)[C@H](C)NC(=O)c1ccn(CC(=O)NOCc2ccccc2)c1)C(=O)O | 6.9% | 16% | > 128 µM | > 128 µM |  |  |
| C=CCONC(=O)Cn1cc(C(=O)N[C@@H](C)C(=O)N[C@H](C(=O)O)C(C)C)c2ccccc21 | 13.6% | 50% | > 128 µM | > 128 µM |  |  |
| COC(=O)[C@H](CC(C)C)NC(=O)c1cccc(/C=C2\SC(=O)N(CC(=O)NOCc3ccccc3)C2=O)c1 | 4.2% | 19% | > 128 µM | > 128 µM |  | 51.9% |
| COC(=O)[C@H](CC(C)C)NC(=O)c1ccc(/C=C2\SC(=O)N(CC(=O)NOCc3ccccc3)C2=O)cc1 | 2% | 5% | > 128 µM | > 128 µM |  | 80.3% |
| COc1nc2ccc(Br)cc2cc1[C@@H](c1ccccc1)[C@@](O)(CCN(C)C)c1cccc2ccccc12 [BEDAQUILINE] | 100% |  |  |  |  |  |
| C=CCONC(=O)CN1C(=O)S/C(=C\c2ccc(C(=O)N[C@H](C(=O)OC)C(C)C)cc2)C1=O | 8.2% | 38% | > 128 µM | > 128 µM |  | 28.4% |
| CC(C)C[C@H](NC(=O)[C@H](C)NC(=O)c1cn(CC(=O)NOCc2ccccc2)c2ccccc12)C(=O)O | 13.6% | 56% | > 128 µM | > 128 µM |  |  |
| C=CCONC(=O)Cn1cc(C(=O)N[C@@H](C)C(=O)N[C@@H](CC(C)C)C(=O)O)c2ccccc21 | 12.4% | 86% | > 128 µM | > 128 µM |  |  |
| COC(=O)[C@@H](NC(=O)c1ccc(/C=C2\SC(=O)N(CC(=O)NOCc3ccccc3)C2=O)cc1)C(C)C | 6.2% | 41% | > 128 µM | > 128 µM |  | 83.2% |

Reference: ChEMBL document CHEMBL5247593, “Novel heterocyclic hydroxamates as inhibitors of the mycobacterial zinc metalloprotease Zmp1 to probe its mechanism of function” (Eur J Med Chem, 2022)
